For experiment [1], the target named is T1, Inhibitor of nuclear factor kappa-B kinase subunit beta (Homo sapiens) (UniProt O14920).
T1 sequence (whole entry): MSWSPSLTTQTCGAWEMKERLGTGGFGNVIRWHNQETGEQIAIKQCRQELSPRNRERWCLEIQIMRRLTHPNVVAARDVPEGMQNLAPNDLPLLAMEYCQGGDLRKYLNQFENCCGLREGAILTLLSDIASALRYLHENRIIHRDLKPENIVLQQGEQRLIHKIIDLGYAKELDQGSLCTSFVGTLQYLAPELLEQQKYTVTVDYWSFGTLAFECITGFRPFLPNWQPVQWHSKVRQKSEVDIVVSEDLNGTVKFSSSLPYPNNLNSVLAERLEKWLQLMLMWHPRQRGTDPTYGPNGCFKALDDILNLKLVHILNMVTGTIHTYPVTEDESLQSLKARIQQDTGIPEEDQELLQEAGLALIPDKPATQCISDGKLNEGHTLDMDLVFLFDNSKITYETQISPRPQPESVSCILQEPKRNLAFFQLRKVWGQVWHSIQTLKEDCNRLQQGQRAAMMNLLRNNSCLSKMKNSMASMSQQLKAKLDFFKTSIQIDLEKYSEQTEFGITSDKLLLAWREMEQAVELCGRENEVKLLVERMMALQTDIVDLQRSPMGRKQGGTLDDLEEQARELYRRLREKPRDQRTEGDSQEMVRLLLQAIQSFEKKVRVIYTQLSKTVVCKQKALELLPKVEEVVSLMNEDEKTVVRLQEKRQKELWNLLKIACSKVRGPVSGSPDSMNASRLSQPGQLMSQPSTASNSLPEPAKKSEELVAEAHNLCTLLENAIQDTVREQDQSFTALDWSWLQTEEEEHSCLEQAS
The settings on record: at 1 µM.

Experiment [2] addresses T2, Tyrosine-protein kinase Mer (Homo sapiens) (UniProt Q12866).
T2 sequence (whole entry): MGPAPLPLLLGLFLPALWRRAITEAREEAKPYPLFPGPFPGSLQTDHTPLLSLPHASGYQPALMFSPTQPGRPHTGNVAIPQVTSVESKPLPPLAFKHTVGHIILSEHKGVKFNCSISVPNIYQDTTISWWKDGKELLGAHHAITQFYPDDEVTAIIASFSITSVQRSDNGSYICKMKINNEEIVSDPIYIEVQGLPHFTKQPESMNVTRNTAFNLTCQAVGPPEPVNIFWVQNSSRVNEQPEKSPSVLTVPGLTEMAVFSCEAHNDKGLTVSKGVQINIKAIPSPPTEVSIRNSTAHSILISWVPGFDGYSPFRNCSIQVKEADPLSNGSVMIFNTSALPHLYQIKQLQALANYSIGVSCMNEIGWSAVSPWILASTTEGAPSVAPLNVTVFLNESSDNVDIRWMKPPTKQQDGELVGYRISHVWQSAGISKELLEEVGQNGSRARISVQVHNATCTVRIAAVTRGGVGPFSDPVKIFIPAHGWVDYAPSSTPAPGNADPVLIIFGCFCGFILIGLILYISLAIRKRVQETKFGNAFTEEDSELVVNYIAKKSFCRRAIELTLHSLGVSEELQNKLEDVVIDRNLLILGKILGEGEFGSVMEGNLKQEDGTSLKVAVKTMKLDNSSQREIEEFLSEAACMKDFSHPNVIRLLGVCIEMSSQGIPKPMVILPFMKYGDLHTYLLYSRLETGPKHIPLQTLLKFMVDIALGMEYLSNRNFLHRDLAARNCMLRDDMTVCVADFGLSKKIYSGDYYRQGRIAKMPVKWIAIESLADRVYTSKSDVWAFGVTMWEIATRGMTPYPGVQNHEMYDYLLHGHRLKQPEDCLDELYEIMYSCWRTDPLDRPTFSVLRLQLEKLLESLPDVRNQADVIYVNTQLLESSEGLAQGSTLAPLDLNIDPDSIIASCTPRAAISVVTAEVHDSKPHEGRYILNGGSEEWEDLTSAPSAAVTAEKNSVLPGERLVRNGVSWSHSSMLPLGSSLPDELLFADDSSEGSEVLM
Conditions: at 10 µM.

For experiment [3], the target named is T3, Inhibitor of nuclear factor kappa-B kinase subunit alpha (Homo sapiens) (UniProt O15111).
T3 sequence (whole entry): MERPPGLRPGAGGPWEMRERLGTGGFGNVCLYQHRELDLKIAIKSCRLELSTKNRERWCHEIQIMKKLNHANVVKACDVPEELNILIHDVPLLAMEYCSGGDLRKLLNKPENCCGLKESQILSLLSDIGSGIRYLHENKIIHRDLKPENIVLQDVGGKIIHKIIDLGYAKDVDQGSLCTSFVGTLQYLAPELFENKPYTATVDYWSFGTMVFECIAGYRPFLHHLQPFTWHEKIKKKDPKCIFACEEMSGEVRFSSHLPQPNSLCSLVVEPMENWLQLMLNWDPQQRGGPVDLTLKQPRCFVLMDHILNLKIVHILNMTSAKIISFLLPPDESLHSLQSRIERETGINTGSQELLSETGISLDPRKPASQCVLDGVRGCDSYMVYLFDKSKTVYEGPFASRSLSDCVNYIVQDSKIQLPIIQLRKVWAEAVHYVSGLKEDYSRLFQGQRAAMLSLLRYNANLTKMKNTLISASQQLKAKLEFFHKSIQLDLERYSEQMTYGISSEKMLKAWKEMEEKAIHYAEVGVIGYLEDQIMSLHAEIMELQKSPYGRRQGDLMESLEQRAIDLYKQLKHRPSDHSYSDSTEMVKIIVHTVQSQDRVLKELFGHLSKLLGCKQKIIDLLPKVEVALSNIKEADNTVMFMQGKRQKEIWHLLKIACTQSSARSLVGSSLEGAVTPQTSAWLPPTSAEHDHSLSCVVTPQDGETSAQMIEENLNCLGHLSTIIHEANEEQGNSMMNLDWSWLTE
The settings on record: at 1 µM.

Values joined by “and” are separate entries in the source; they are usually repeats but may differ in a detail not shown here. Identical values can stand only once.

`Cc1ccc2c(c1)/C(=N/Nc1ccc(S(N)(=O)=O)cc1)C(=O)N2`: the inhibition in experiment [1] was 4% and 10%; in experiment [2] it was 66%; in experiment [3] it was 9% and -3%.
As for `CCN1CCC(C(=O)Nc2n[nH]c3nnc(-c4cccc(F)c4F)cc23)CC1`, the inhibition in experiment [1] was -2% and -4%; in experiment [2], -7%; in experiment [3] it was 4% and 3%.
Consider `FC(F)(F)c1cccc(Nc2nccc(-c3cnn4nc(-c5ccccc5)ccc34)n2)c1`, for which the inhibition in experiment [1] was 1% and 2%; in experiment [2] it was -2%; in experiment [3] it was -5% and -4%.
For the compound `Clc1ccc(CNc2nccc(-c3cnn4ncccc34)n2)cc1`, the inhibition in experiment [1] was 5% and -2%; in experiment [2] it was -4%; in experiment [3] it was -1%.
On to `CCn1c(-c2nonc2N)nc2c(C#CC(C)(C)O)nc(OC[C@@H](N)c3ccccc3)cc21`, for which the inhibition was -6% and -5% in experiment [1]; -1% in experiment [2]; 13% and 12% in experiment [3].
`COc1cc2c(cc1Nc1nc(Nc3ccsc3C(N)=O)c3cc[nH]c3n1)N(C(=O)CN(C)C)CCC2(C)C`: the inhibition was -5% and -1% in experiment [1]; 68% in experiment [2]; 1% and 2% in experiment [3].
As to `FC(F)(F)c1ccc(-c2nn3ncccc3c2-c2ccnc(Nc3ccc4c(c3)OCCO4)n2)cc1`, the inhibition in experiment [1] is -1% and -3%; in experiment [2], -6%; in experiment [3], 1% and 0%.
For the compound `CCOc1ccc2c(-c3ccnc(Nc4cc(OC)cc(C(F)(F)F)c4)n3)cnn2n1`, the inhibition in experiment [1] was -1%; in experiment [2] it was -5%; in experiment [3], 4% and -1%.
As for `CS(=O)(=O)CCNCc1ccc(-c2ccc3ncnc(Nc4ccc(OCc5ccccc5)c(Br)c4)c3c2)o1`, the inhibition in experiment [1] was -1% and -2%; in experiment [2], 14%; in experiment [3], 3% and 2%.
`CCc1cccc(CC)c1/C=C/c1cncc(C(=O)NC)c1`: the inhibition in experiment [1] is -6% and -4%; in experiment [2] it was -7%; in experiment [3] it was 2% and 1%.
In the case of `C#Cc1cccc(Nc2ncnc3ccc(OCCCCNCCS(C)(=O)=O)cc23)c1`, the inhibition in experiment [1] is -5% and -6%; in experiment [2] it was 6%; in experiment [3] it was 3%.
As to `CN1CCC(n2cnc(-c3ccc(F)cc3)c2-c2ccnc(NCCO)n2)CC1`, the inhibition in experiment [1] is -3% and -4%; in experiment [2], -2%; in experiment [3] it was 0% and 1%.
For the compound `CC1=C(C(=O)Nc2ccc3[nH]nc(C)c3c2)C(c2ccc(C(F)(F)F)cc2)CC(=O)N1` (stereo unspecified), the inhibition in experiment [1] is 6% and 0%; in experiment [2], 44%; in experiment [3], 4% and 5%.
With `NS(=O)(=O)c1ccc(N/N=C2\C(=O)Nc3ccc(C(=O)NCCc4c[nH]cn4)cc32)cc1`, the inhibition in experiment [1] was -4% and -2%; in experiment [2], -1%; in experiment [3] it was 7% and 3%.
Take `CS(=O)(=O)CCNCc1ccc(-c2ccc3ncnc(Nc4ccc(OCc5cccc(C(F)(F)F)c5)cc4)c3c2)o1`: the inhibition is 0% and -1% in experiment [1]; -2% in experiment [2]; -1% and 0% in experiment [3].
Turning to `Cc1cc(O)cc(C)c1/C=C/c1cncc(C(=O)OC(C)(C)C)c1`, the inhibition in experiment [1] was -1% and -2%; in experiment [2], -2%; in experiment [3] it was -1% and 0%.
Turning to `O=C(O[C@H]1CN[C@H](C#Cc2cc3ncnc(Nc4ccc(OCc5cccc(F)c5)c(Cl)c4)c3s2)C1)N1CCOCC1`, the inhibition was 0% and -1% in experiment [1]; -3% in experiment [2]; -1% and 0% in experiment [3].
Take `CCc1nccc2c1nc(-c1nonc1N)n2CC`: the inhibition in experiment [1] was 0% and -3%; in experiment [2] it was -3%; in experiment [3] it was 12% and 13%.
On to `Nc1nccc(-c2c(-c3ccc(F)cc3)ncn2C2CCC(O)CC2)n1` (stereo unspecified), for which the inhibition was -2% and -3% in experiment [1]; 29% in experiment [2]; 4% and 10% in experiment [3].
`Cc1ccc(C(=O)NC(C)C)cc1-c1ccc(C(=O)NCC2CC2)cc1`: the inhibition in experiment [1] is -1% and 3%; in experiment [2], -2%; in experiment [3] it was 0% and -2%.
For the compound `Cc1ccc2c(-c3ccnc(Nc4cccc(C(F)(F)F)c4)n3)c(-c3ccccc3)nn2n1`, the inhibition in experiment [1] is -3% and -6%; in experiment [2], 4%; in experiment [3] it was 6% and 4%.
For `Nc1nc(-c2cccc(Cl)c2)c(-c2ccc3ncccc3n2)s1`, the inhibition was -3% and -1% in experiment [1]; 1% in experiment [2]; 3% and -7% in experiment [3].
Consider `COc1ccc(-c2coc3ncnc(N)c23)cc1`, for which the inhibition in experiment [1] was -3% and -1%; in experiment [2] it was -3%; in experiment [3], 0% and 1%.
On to `N#Cc1cccc(Nc2ncc(-c3ccccc3)o2)c1`, for which the inhibition in experiment [1] was -2% and -3%; in experiment [2], 80%; in experiment [3], 1% and -1%.
Turning to `Nc1nonc1-c1nc2cnccc2n1C1CCCCC1`, the inhibition in experiment [1] was -7%; in experiment [2] it was 1%; in experiment [3], 39% and 36%.
For the compound `CS(=O)(=O)CCNCc1ccc(-c2ccc3ncnc(Nc4ccc(OCc5cccc(F)c5)c(C(F)(F)F)c4)c3c2)o1`, the inhibition is 2% and -2% in experiment [1]; 50% in experiment [2]; -3% and -2% in experiment [3].
On to `COc1ccccc1-c1cc(/C=C2\C(=O)Nc3ncc(Br)cc32)cc(Br)c1O`, for which the inhibition is -4% and -2% in experiment [1]; -2% in experiment [2]; 0% and 4% in experiment [3].
As to `COc1cc(N2CCN(C(C)C)CC2)ccc1Nc1nc(Nc2ccc(F)cc2C(N)=O)c2cc[nH]c2n1`, the inhibition in experiment [1] was 0% and -4%; in experiment [2], 4%; in experiment [3], 3%.
In the case of `Nc1ncc(-c2cccc(S(N)(=O)=O)c2)c2scc(-c3ccc(F)c(Cl)c3)c12`, the inhibition was -1% and 0% in experiment [1]; 3% in experiment [2]; -2% in experiment [3].
On to `NS(=O)(=O)c1cccc(Nc2cc(-c3ccc(F)cc3)n[nH]2)c1`, for which the inhibition is -2% in experiment [1]; 0% in experiment [2]; 0% and -3% in experiment [3].
As for `CNC(=O)c1sc(-n2cnc3cc(OC)c(OC)cc32)cc1OCc1ccccc1C(F)(F)F`, the inhibition is -5% and -3% in experiment [1]; 4% in experiment [2]; 2% and 4% in experiment [3].
Take `NS(=O)(=O)c1ccc(-c2cc3ccncc3cc2OCc2ccccc2)cc1`: the inhibition is -4% and -6% in experiment [1]; -3% in experiment [2]; 1% in experiment [3].

For the origin of these results see ChEMBL document CHEMBL2007661, “Compounds: GSK PKIS; Assays: UNC Frye lab” (2012).
